Data: ChEMBL document CHEMBL1130230, “1,4-disubstituted anthracene antitumor agents” (J Med Chem, 1997)

Tests used:
Format in all cases: functional, cell-based
RPMI-8226 [1] = test: Compound was tested for potency against human myeloma 8226 cells using MTT assay method.
WiDr = test: Compound was tested for potency against human colon carcinoma WiDr cells in a sulforhodamine B assay.
L1210 [2] = test: Compound was tested for potency against multi drug resistant murine leukemia L1210 cells.; conditions: Mus musculus
A549 [3] = test: Compound was tested for potency against human lung A549 cells using sulforhodamine B assay.
SW480 [4] = test: Compound was tested for potency against human colon carcinoma SW 480 cells in a sulforhodamine B assay.
RPMI-8226 [5] = test: Compound was tested for potency against human myeloma 8226 cells (40 fold resistant to doxorubicin).
L1210 [6] = test: Compound was tested for potency against multidrug-resistant murine leukemia L1210 cells; conditions: Mus musculus
SW480 [7] = test: Compound was tested for potency against human colon carcinoma SW 480 cells in a sulforhodamine B assay; UA=Potency was so low that the IC50 was unachievable.
A549 [8] = test: Compound was tested for potency against human lung A549 cells using sulforhodamine B assay; UA=Potency was so low that the IC50 was unachievable.

| Compound | IC50 (RPMI-8226 [1]) | IC50 (WiDr) | IC50 (L1210 [2]) | IC50 (A549 [3]) | IC50 (SW480 [4]) | IC50 (RPMI-8226 [5]) | IC50 (L1210 [6]) | IC50 (SW480 [7]) | IC50 (A549 [8]) |
| --- | --- | --- | --- | --- | --- | --- | --- | --- | --- |
| CN(C)CCNC(=O)c1c2ccccc2c(C(=O)NCCN(C)C)c2ccccc12 | > 10 µM | 26 µM | 140 µM | 99 µM | 44 µM | > 10 µM | 44 µM | – | – |
| CN(C)CCNC(=O)c1ccc(C(=O)NCCN(C)C)c2cc3ccccc3cc12 | 3.3 µM | 1.4 µM | 29 µM | 0.71 µM | 3.2 µM | 5 µM | 4.2 µM | – | – |
| CN(C)CCNCc1ccc(CNCCN(C)C)c2cc3ccccc3cc12 | 7 µM | 17 µM | 8.3 µM | 8.1 µM | 19 µM | 4 µM | 2.8 µM | – | – |
| C(=N\NC1=NCCN1)/c1ccc(/C=N/NC2=NCCN2)c2cc3ccccc3cc12 | 5.6 µM | 1.6 µM | 13 µM | 5 µM | 0.72 µM | 6.7 µM | 2.6 µM | – | – |
| CN(C)CCNCc1c2ccccc2c(CNCCN(C)C)c2ccccc12 | 3 µM | 4 µM | 3.6 µM | 5 µM | 5 µM | 3 µM | 3.3 µM | – | – |
| CN(C)CCNCc1ccc(CBr)c2cc3ccccc3cc12 | 12 µM | 15 µM | 188 µM | 91 µM | – | 4 µM | 52 µM | Unachievable | – |
| CN(C)CCNC(=O)c1ccc(C(=O)NCCN(C)C)c2c1C(=O)c1ccccc1C2=O | > 10 µM | 4.5 µM | 73 µM | – | – | 5 µM | 63 µM | Unachievable | Unachievable |
| C(=N\NC1=NCCN1)/c1c2ccccc2c(/C=N/NC2=NCCN2)c2ccccc12 [BISANTRENE] | 0.018 µM | 0.79 µM | 3.2 µM | 0.017 µM | 0.09 µM | 9.1 µM | 0.049 µM | – | – |
